Test results taken from US11547686B2 (priority 2017, dated 2023).
Converted amounts (≈) assume the structure as drawn. Read-outs that look alike come from different tables or passages of the source. Marks after values point to notes of the source that are not given here.

Tests used:
[1] = system: somatic pain in a rat model; assay: Hot plate test (somatic pain); type: in vivo, Sprague-Dawley rats; conditions: rats; morphine 3 mg/kg s.c.; combination 50 mg/kg APAP; 40 mg/kg pregabalin IV infusion
Experimental: Hot Plate Test: The hot plate test is a test that can be used to assess pain sensitivity in rodents. […] In the test, an animal is placed in a confined cylindrical space to restrict locomotion. The floor surface of the space is maintained at a temperature sufficiently hot to elicit an aversive response, but not so hot that tissue damage is induced, typically 50-56° C. The animal is monitored, and latency to paw licking or jumping is recorded. This test can be used to screen novel drugs or drug combinations for effects on pain detection threshold; substances with an analgesic effect can increase latency to licking/jumping, while substances with a hyperalgesic effect can decrease latency.
The effect on somatic pain was tested in groups of 8 Male Sprague-Dawley rats.
Vehicle and test agents were administered by intravenous infusion (IV-CI) over 15 minutes starting 30 minutes before Time 0 (15 minutes post infusion). Morphine was used as a positive control, and was administered (3 mg/kg) by subcutaneous administration 60 minutes before Time 0. […] The pain threshold of the rats was assessed based on the time (seconds) required to elicit a paw withdrawal response (latency).
The data were analyzed by a one-way ANOVA followed by Dunnett's test for comparison between vehicle control and test article/positive control groups.

[2] = system: red blood cells (rat whole unclotted blood); assay: In vitro hemolysis test, rat blood; conditions: 15 min at 37° C.
[3] = Necropsy and histopathologic evaluation after intravenous infusion in rats; conditions: n = 6 per group
Experimental: (§1) Blood samples were collected over a 24 h period, at which time the rats were exsanguinated, and the blood was collected for clinical pathology evaluation (chemistry, hematology, and coagulation). Finally, all the animals were necropsied (all exterior and interior cavities and organs were examined), and the site of infusion in the jugular vein, lung, liver, and kidney underwent histopathologic evaluation.

[4] = system: red blood cells (human whole unclotted blood); assay: In vitro hemolysis test, human blood; conditions: 15 min at 37° C.
[5] = Pharmacokinetic parameters after 15 min infusion in rats; conditions: for AUC(0-inf) / Cmax: rat, in vivo, iv
Experimental: The active ingredients were dissolved in 0.9% saline (20 mL) to achieve the desired concentration. The saline and vial constituents were mixed with by gentle swirling until a clear solution was obtained. The obtained clear solution was filtered through a sterile 0.45 μm PVDF membrane syringe filter and then used for further studies.
as §1

[6] = rats, 15 min IV infusion
Experimental: as §1

[7] = Solubility of pregabalin and acetaminophen in water at different pH values (HPLC-UV); conditions: for solubility: thermodynamic from solid
Experimental: The pH was then adjusted to the required range. The concentration of the active ingredients was determined by HPLC-UV.

[8] = system: red blood cells (mouse whole unclotted blood); assay: In vitro hemolysis test, mouse blood; conditions: 15 min at 37° C.
[9] = system: red blood cells (dog whole unclotted blood); assay: In vitro hemolysis test, dog blood; conditions: 15 min at 37° C.

CN1CC[C@]23c4c5ccc(O)c4O[C@H]2[C@@H](O)C=C[C@H]3[C@H]1C5 [morphine]
Onset of the analgesic effect [1]: near immediate

CC(C)C[C@H](CN)CC(=O)O [Pregabalin, (3S)-3-(Aminomethyl)-5-methylhexanoic acid]
% Hemolysis ([2]; PGB 0.75 mg/mL): 2% | % Hemolysis ([2]; PGB 1.5 mg/mL): 0% | % Hemolysis ([2]; PGB 3 mg/mL): 2% | Necropsy Observation: Lung Discolored ([3]; PGB 1.25 mg/kg): 1 | Necropsy Observation: Lung Focus ([3]; PGB 1.25 mg/kg): 1 | Necropsy Observation: Lung Discolored ([3]; PGB 5 mg/kg): 0 | Necropsy Observation: Lung Focus ([3]; PGB 5 mg/kg): 2 | % Hemolysis ([4]; PGB 0.75 mg/mL): 0% | % Hemolysis ([4]; PGB 1.5 mg/mL): 7% | % Hemolysis ([4]; PGB 3 mg/mL): 1% | AUC(0-inf) ([5]; 1.25 mg/kg, AUC0-∞ of pregabalin, rats, 15 min IV infusion, Pregabalin 1.25 mg/kg): 6750 ng·h/mL | Cmax ([5]; 1.25 mg/kg, Cmax of pregabalin, rats, 15 min IV infusion, Pregabalin 1.25 mg/kg): 2060 ng/mL | AUC(0-inf) ([5]; 1.25 mg/kg, Equivalence (80%-125%) range of pregabalin AUC0-∞, rats, Pregabalin 1.25 mg/kg alone as reference): 5400 to 8440 ng·h/mL | Cmax ([5]; 1.25 mg/kg, Equivalence (80%-125%) range of pregabalin Cmax, rats, Pregabalin 1.25 mg/kg alone as reference): 1650 to 2580 ng/mL | AUC(0-inf) ([5]; 5 mg/kg, AUC0-∞ of pregabalin, rats, 15 min IV infusion, Pregabalin 5 mg/kg): 26100 ng·h/mL | Cmax ([5]; 5 mg/kg, Cmax of pregabalin, rats, 15 min IV infusion, Pregabalin 5 mg/kg): 7910 ng/mL | AUC(0-inf) ([5]; 5 mg/kg, Equivalence (80%-125%) range of pregabalin AUC0-∞, rats, Pregabalin 5 mg/kg alone as reference): 20900 to 32700 ng·h/mL | Cmax ([5]; 5 mg/kg, Equivalence (80%-125%) range of pregabalin Cmax, rats, Pregabalin 5 mg/kg alone as reference): 6330 to 9880 ng/mL | Change in the pharmacokinetic profile of pregabalin in the presence or absence of acetaminophen ([5]; rats, 15 min IV infusion): No change | ALBGLOB (albumin/globulin ratio, calculated) ([6]; PGB 1.25 mg/kg): 1.4 | ALP (alkaline phosphatase) ([6]; PGB 1.25 mg/kg): 99 U/L | ALT (alanine aminotransferase) ([6]; PGB 1.25 mg/kg): 45 U/L | APPT (Activated partial thromboplastin time) ([6]; PGB 1.25 mg/kg): 12.9 s | AST (aspartate aminotransferase) ([6]; PGB 1.25 mg/kg): 93 ** U/L | Albumin ([6]; PGB 1.25 mg/kg): 4.0 g/dL | Basophils ([6]; PGB 1.25 mg/kg): 80 µL⁻¹ | Bilirubin ([6]; PGB 1.25 mg/kg): 0.02 mg/dL | Calcium ([6]; PGB 1.25 mg/kg): 11.4 mg/dL | Chloride ([6]; PGB 1.25 mg/kg): 102 mEq/L | Cholesterol ([6]; PGB 1.25 mg/kg): 94 mg/dL | Creatinine ([6]; PGB 1.25 mg/kg): 0.47 mg/dL | Eosinophils ([6]; PGB 1.25 mg/kg): 280 µL⁻¹ | GLOBUL (globulin, calculated) ([6]; PGB 1.25 mg/kg): 2.8 g/dL | Glucose ([6]; PGB 1.25 mg/kg): 166 mg/dL | Hematocrit ([6]; PGB 1.25 mg/kg): 44.2% | Hemoglobin ([6]; PGB 1.25 mg/kg): 14.2 g/dL | LGLUCLE (large unstained cell) ([6]; PGB 1.25 mg/kg): 100 µL⁻¹ | Lymphocytes ([6]; PGB 1.25 mg/kg): 9400 µL⁻¹ | MCH (mean cell hemoglobin) ([6]; PGB 1.25 mg/kg): 17.8 pg | MCHC (mean cell hemoglobin concentration) ([6]; PGB 1.25 mg/kg): 32 g/dL | MCV (mean cell volume) ([6]; PGB 1.25 mg/kg): 55.8 fL | Monocytes ([6]; PGB 1.25 mg/kg): 500 µL⁻¹ | Neutrophils ([6]; PGB 1.25 mg/kg): 1400 µL⁻¹ | PHOS (inorganic phosphorus) ([6]; PGB 1.25 mg/kg): 10.6 mg/dL | Platelets ([6]; PGB 1.25 mg/kg): 908000 µL⁻¹ | Potassium ([6]; PGB 1.25 mg/kg): 7.3 mEq/L | Protein ([6]; PGB 1.25 mg/kg): 6.7 g/dL | Prothrombin time ([6]; PGB 1.25 mg/kg): 16.8 s | RBC ([6]; PGB 1.25 mg/kg): 7.93e+06 µL⁻¹ | Reticulocytes ([6]; PGB 1.25 mg/kg): 4.11 * % | Sodium ([6]; PGB 1.25 mg/kg): 148 * mEq/L | Triglycerides ([6]; PGB 1.25 mg/kg): 33 mg/dL | UREAN (blood urea nitrogen) ([6]; PGB 1.25 mg/kg): 19 mg/dL | WBC ([6]; PGB 1.25 mg/kg): 11740 µL⁻¹ | ALBGLOB (albumin/globulin ratio, calculated) ([6]; PGB 5 mg/kg): 1.4 | ALP (alkaline phosphatase) ([6]; PGB 5 mg/kg): 97 U/L | ALT (alanine aminotransferase) ([6]; PGB 5 mg/kg): 51 U/L | APPT (Activated partial thromboplastin time) ([6]; PGB 5 mg/kg): 12.4 s | AST (aspartate aminotransferase) ([6]; PGB 5 mg/kg): 107 U/L | Albumin ([6]; PGB 5 mg/kg): 3.9 g/dL | Basophils ([6]; PGB 5 mg/kg): 80 µL⁻¹ | Bilirubin ([6]; PGB 5 mg/kg): 0.02 mg/dL | Calcium ([6]; PGB 5 mg/kg): 11.5 mg/dL | Chloride ([6]; PGB 5 mg/kg): 101 mEq/L | Cholesterol ([6]; PGB 5 mg/kg): 93 mg/dL | Creatinine ([6]; PGB 5 mg/kg): 0.44 mg/dL | Eosinophils ([6]; PGB 5 mg/kg): 350 µL⁻¹ | GLOBUL (globulin, calculated) ([6]; PGB 5 mg/kg): 2.8 g/dL | Glucose ([6]; PGB 5 mg/kg): 150 mg/dL | Hematocrit ([6]; PGB 5 mg/kg): 45.1% | Hemoglobin ([6]; PGB 5 mg/kg): 14.4 g/dL | LGLUCLE (large unstained cell) ([6]; PGB 5 mg/kg): 80 µL⁻¹ | Lymphocytes ([6]; PGB 5 mg/kg): 10810 µL⁻¹ | MCH (mean cell hemoglobin) ([6]; PGB 5 mg/kg): 18.3 pg | MCHC (mean cell hemoglobin concentration) ([6]; PGB 5 mg/kg): 32.1 g/dL | MCV (mean cell volume) ([6]; PGB 5 mg/kg): 57.1 fL | Monocytes ([6]; PGB 5 mg/kg): 450 µL⁻¹ | Neutrophils ([6]; PGB 5 mg/kg): 1520 µL⁻¹ | PHOS (inorganic phosphorus) ([6]; PGB 5 mg/kg): 10 ** mg/dL | Platelets ([6]; PGB 5 mg/kg): 933000 µL⁻¹ | Potassium ([6]; PGB 5 mg/kg): 6.9 * mEq/L | Protein ([6]; PGB 5 mg/kg): 6.7 g/dL | Prothrombin time ([6]; PGB 5 mg/kg): 16.6 s | RBC ([6]; PGB 5 mg/kg): 7.9e+06 µL⁻¹ | Reticulocytes ([6]; PGB 5 mg/kg): 4.7% | Sodium ([6]; PGB 5 mg/kg): 147 mEq/L | Triglycerides ([6]; PGB 5 mg/kg): 30 mg/dL | UREAN (blood urea nitrogen) ([6]; PGB 5 mg/kg): 19 mg/dL | WBC ([6]; PGB 5 mg/kg): 13280 µL⁻¹ | solubility ([7]; aqueous buffer, Solubility of pregabalin, water, pH range of 5-7, pregabalin alone): ~31 mg/mL (≈ 195 mM) | solubility ([7]; pH 4, aqueous buffer, Solubility of pregabalin, water, pH 4, co-dissolved with acetaminophen): 54.4 mg/mL (≈ 342 mM) | solubility ([7]; pH 4, aqueous buffer, Solubility of pregabalin, water, room temperature, pH 4, pregabalin alone): 54.4 mg/mL (≈ 342 mM) | solubility ([7]; pH 5, aqueous buffer, Solubility of pregabalin, water, pH 5, co-dissolved with acetaminophen): 36.8 mg/mL (≈ 231 mM) | solubility ([7]; pH 5, aqueous buffer, Solubility of pregabalin, water, room temperature, pH 5, pregabalin alone): 32.4 mg/mL (≈ 203 mM) | solubility ([7]; pH 6, aqueous buffer, Solubility of pregabalin, water, pH 6, co-dissolved with acetaminophen): 35 mg/mL (≈ 220 mM) | solubility ([7]; pH 6, aqueous buffer, Solubility of pregabalin, water, room temperature, pH 6, pregabalin alone): 31 mg/mL (≈ 195 mM) | solubility ([7]; pH 7, aqueous buffer, Solubility of pregabalin, water, pH 7, co-dissolved with acetaminophen): 35 mg/mL (≈ 220 mM) | solubility ([7]; pH 7, aqueous buffer, Solubility of pregabalin, water, room temperature, pH 7, pregabalin alone): 30.6 mg/mL (≈ 192 mM) | Change in the solubility of pregabalin in the presence of acetaminophen ([7]; pH range of 5-7, versus pregabalin alone): increase | % Hemolysis ([8]; PGB 0.75 mg/mL): 0% | % Hemolysis ([8]; PGB 1.5 mg/mL): 4% | % Hemolysis ([8]; PGB 3 mg/mL): 0% | % Hemolysis ([9]; PGB 0.75 mg/mL): 0% | % Hemolysis ([9]; PGB 1.5 mg/mL): 0% | % Hemolysis ([9]; PGB 3 mg/mL): 1%

CC(=O)Nc1ccc(O)cc1 [Acetaminophen, N-(4-hydroxyphenyl)acetamide]
% Hemolysis ([2]; APAP 5 mg/mL): 6% | % Hemolysis ([2]; APAP 7.5 mg/mL): 0% | % Hemolysis ([2]; APAP 10 mg/mL): 2% | % Hemolysis ([4]; APAP 5 mg/mL): 2% | % Hemolysis ([4]; APAP 7.5 mg/mL): 0% | % Hemolysis ([4]; APAP 10 mg/mL): 6% | AUC(0-inf) ([5]; 17 mg/kg, AUC0-∞ of acetaminophen): 11500 ng·h/mL | Cmax ([5]; 17 mg/kg, Cmax of acetaminophen): 18600 ng/mL | AUC(0-inf) ([5]; 17 mg/kg, Equivalence (80%-125%) range of acetaminophen AUC0-∞): 9190 to 14400 ng·h/mL | Cmax ([5]; 17 mg/kg, Equivalence (80%-125%) range of acetaminophen Cmax): 14900 to 23300 ng/mL | Effect of the presence or absence of pregabalin on the pharmacokinetics of acetaminophen ([5]; rats, 15 min IV infusion): did not affect | solubility ([7]; pH 4, aqueous buffer, Solubility of acetaminophen, water, pH 4, co-dissolved with pregabalin): ~21 mg/mL (≈ 139 mM) | solubility ([7]; pH 5, aqueous buffer, Solubility of acetaminophen, water, pH 5, co-dissolved with pregabalin): 18.7 mg/mL (≈ 124 mM) | solubility ([7]; pH 6, aqueous buffer, Solubility of acetaminophen, water, pH 6, co-dissolved with pregabalin): 17.9 mg/mL (≈ 118 mM) | solubility ([7]; pH 7, aqueous buffer, Solubility of acetaminophen, water, pH 7, co-dissolved with pregabalin): 17.9 mg/mL (≈ 118 mM) | Difference in the solubility of acetaminophen ([7]; pH range from 4-7, acetaminophen alone): no significant difference | Solubility of acetaminophen ([7]; water, pH 4, co-dissolved with pregabalin): 20.8 mg/mL | % Hemolysis ([8]; APAP 5 mg/mL): 5% | % Hemolysis ([8]; APAP 7.5 mg/mL): 5% | % Hemolysis ([8]; APAP 10 mg/mL): 4% | % Hemolysis ([9]; APAP 5 mg/mL): 0% | % Hemolysis ([9]; APAP 7.5 mg/mL): 0% | % Hemolysis ([9]; APAP 10 mg/mL): 0%
